Laboratory results from patent US4103008A, “7[2(2,3 Dioxopiperazin-1-yl-carbonylamino)substituted 2 phenylacetamido]-3-2'-thiadiazolyl cephalosporanic acid derivatives” (priority 1976, dated 1978).
In brackets after ≈: the same amount, converted by molar mass. Where two headings read alike, the source gives them in different places.

Legend:
[1] = system: Pseudomonas aeruginosa E2; experiment: MIC against Pseudomonas aeruginosa E2; assay type: cell-based
[2] = system: Staphylococcus aureus FDA 209NIH, P-J C-1; experiment: In vitro antibacterial activity (MIC); assay type: cell-based; settings: Staphylococcus aureus FDA 209NIH, P-J C-1; in vitro; sodium salts; read-out: MIC
[3] = system: Streptococcus faecalis ATCC 8043; experiment: In vitro antibacterial activity (MIC); assay type: cell-based; settings: Enterococcus faecalis, ATCC8043; Streptococcus faecalis ATCC 8043; in vitro; sodium salts; read-out: MIC
[4] = system: Bacillus substilis ATCC 6633; experiment: In vitro antibacterial activity (MIC); assay type: cell-based; settings: ATCC6633; Bacillus substilis ATCC 6633; in vitro; sodium salts; read-out: MIC
[5] = system: Escherichia coli C 73-1; experiment: In vitro antibacterial activity (MIC); assay type: cell-based; settings: C731
[6] = system: Escherichia coli C 73-4; experiment: In vitro antibacterial activity (MIC); assay type: cell-based; settings: C734; Escherichia coli C 73-4; in vitro; sodium salts; read-out: MIC
[7] = system: Salmonella enteritidis No. 11; experiment: In vitro antibacterial activity (MIC); assay type: cell-based; settings: Salmonella enterica; Salmonella enteritidis No. 11; in vitro; sodium salts; read-out: MIC
[8] = system: Pseudomonas strain C73-83; experiment: In vitro antibacterial activity (MIC); assay type: cell-based; settings: C7383; Pseudomonas strain C73-83; in vitro; sodium salts; read-out: MIC
From the text: (§1) Given below are the test results of in vitro antibacterial activity studies, serum concentrations and accumulative urinary excretions in rabbits and the protecting effects in mice, of some representative compounds of the invention.
(§2) The compounds used in the tests are shown in the following Table 1, but all of these compounds are in the form of the sodium salt.

[9] = system: Salmonella strain C 73-30; experiment: In vitro antibacterial activity (MIC); assay type: cell-based; settings: C7330; Salmonella strain C 73-30; in vitro; sodium salts; read-out: MIC
From the text: as §1, §2

[10] = system: Salmonella strain C73-1; experiment: In vitro antibacterial activity (MIC); assay type: cell-based; settings: C731; Salmonella strain C73-1; in vitro; sodium salts; read-out: MIC
From the text: as §1, §2

[11] = system: Shigella dysenteriae shigae; experiment: microbe, parasite or virus in culture; assay type: cell-based
[12] = system: Klebsilla pneumoniae; experiment: In vitro antibacterial activity (MIC); assay type: cell-based
[13] = system: Proteus morganii kono; experiment: In vitro antibacterial activity (MIC); assay type: cell-based; settings: Morganella morganii; Proteus morganii kono; in vitro; sodium salts; read-out: MIC
[14] = system: Proteus morganii C73-23; experiment: In vitro antibacterial activity (MIC); assay type: cell-based; settings: Morganella morganii, C7323; Proteus morganii C73-23; in vitro; sodium salts; read-out: MIC
[15] = system: Enterobacter strain C73-17; experiment: In vitro antibacterial activity (MIC); assay type: cell-based; settings: C7317
[16] = system: Serratia strain No. 1; experiment: In vitro antibacterial activity (MIC); assay type: cell-based; settings: Serratia strain No. 1; in vitro; sodium salts; read-out: MIC
[17] = system: Serratia strain No. 2; experiment: In vitro antibacterial activity (MIC); assay type: cell-based; settings: Serratia strain No. 2; in vitro; sodium salts; read-out: MIC
[18] = system: Pseudomonas aeruginosa C73-2; experiment: In vitro antibacterial activity (MIC); assay type: cell-based; settings: C732; Pseudomonas aeruginosa C73-2; in vitro; sodium salts; read-out: MIC
[19] = system: Pseudomonas strain C73-63; experiment: In vitro antibacterial activity (MIC); assay type: cell-based; settings: C7363; Pseudomonas strain C73-63; in vitro; sodium salts; read-out: MIC
[20] = system: Vibrio parahaemolyticus K - 3; experiment: In vitro antibacterial activity (MIC); assay type: cell-based; settings: K3; Vibrio parahaemolyticus K - 3; in vitro; sodium salts; read-out: MIC
[21] = system: Vibrio parahaemolyticus K - 5; experiment: In vitro antibacterial activity (MIC); assay type: cell-based; settings: K5; Vibrio parahaemolyticus K - 5; in vitro; sodium salts; read-out: MIC
[22] = Serum concentration and accumulative urinary excretion in rabbit; settings: in vivo, im; for dose excreted at 6 h: 20 mg/kg; for concentration at 0.5 h: 20 mg/kg intramuscular, after 30 mins., sodium salts, Sarcina lutea assay
Procedure: as §1, §2
Each of the test compounds (20 mg/kg) was intramuscularly administered to one group of 3 rabbits, and the amounts of antibiotics were measured by a conventional method, using Sarcina lutea.

[23] = system: Pseudomonas aerugenosa E 2 strain; experiment: ED50 in Pseudomonas infection in mice; assay type: in vivo; settings: ICR-JCL mouse, male, 20g; P. aerugenosa E 2 3.6 × 10^4 intraperitoneal; compound intramuscular after 2 hrs.; ED50 after 7 days; sodium salts
From the text: as §1, §2
Pseudomonas aerugenosa E 2 strain (3.6 × 10^4) was intraperitonealy injected to each group of 10 of ICR-JCL mouse (male, 20g). After 2 hrs., each of the test compounds was intramuscularly administered to the infected mice and the ED50 values were measured after 7 days.

[24] = Escherichia coli C 73-1, in vitro, sodium salts, read-out: MIC
[25] = Klebsilla pneumoniae, in vitro, sodium salts, read-out: MIC
[26] = Enterobacter strain C73-17, in vitro, sodium salts, read-out: MIC

Row | Structure (SMILES) | MIC [1] [µg/mL] | MIC [2] [µg/mL] | MIC [3] [µg/mL] | MIC [4] [µg/mL] | MIC [6] [µg/mL] | MIC [7] [µg/mL] | MIC [8] [µg/mL] | MIC [9] [µg/mL] | MIC [10] [µg/mL] | MIC [11] [µg/mL] | MIC [13] [µg/mL] | MIC [14] [µg/mL] | MIC [16] [µg/mL] | MIC [17] [µg/mL] | MIC [18] [µg/mL] | MIC [19] [µg/mL] | MIC [20] [µg/mL] | MIC [21] [µg/mL] | dose excreted at 6 h [22] [%] | concentration at 0.5 h [22] [ng/mL] | also measured
1 | CCOC(=O)Oc1ccc([C@@H](NC(=O)N2CCN(CC)C(=O)C2=O)C(=O)NC2C(=O)N3C(C(=O)O)=C(CSc4nnc(C)s4)CS[C@H]23)cc1 (single isomer, unassigned) [Example 11, 7-[D(-)-α-(4-ethyl-2,3-dioxopiperazin-1-yl-carbonylamino)-p-ethoxycarbonyloxyphenylacetamido]-3-(5-methyl-1,3,4-thiadiazol-2-yl-thiomethyl)-3-cephem-4-carboxylic acid] | 12.5 (≈ 17 µM) |  |  |  |  |  |  |  |  |  |  |  |  |  |  |  |  |  |  |  | 
2 | CCOC(=O)Oc1ccc([C@@H](NC(=O)N2CCN(CC)C(=O)C2=O)C(=O)NC2C(=O)N3C(C(=O)O)=C(CSc4nncs4)CS[C@H]23)cc1Cl (single isomer, unassigned) [VI, 7-[D(-)-α-(4-ethyl-2,3-dioxopiperazin-1-yl-carbonylamino)-m-chloro-p-ethoxycarbonyloxyphenylacetamido]-3-(1,3,4-thiadiazol-2-yl-thiomethyl)-3-cephem-4-carboxylic acid] |  | 0.39 | 6.25 | 0.39 | 3.13 | 0.2 | 12.5 | 3.13 | 3.13 | 1.56 (≈ 2.07 µM) | 3.13 | 12.5 | 6.25 | 6.25 | 12.5 | 3.13 | 12.5 | 12.5 | 17.4 | 19400 | MIC ([5]; Escherichia coli): 1.56 µg/mL (≈ 2.07 µM); MIC [12]: 1.56 µg/mL (≈ 2.07 µM); MIC ([15]; Enterobacter): 1.56 µg/mL (≈ 2.07 µM); ED50 in Pseudomonas infection in mice [23]: 0.8 mg/mouse
3 | CCN1CCN(C(=O)N[C@@H](C(=O)NC2C(=O)N3C(C(=O)O)=C(CSc4nncs4)CS[C@H]23)c2ccc(OC(=O)CC(C)=O)c(Cl)c2)C(=O)C1=O (single isomer, unassigned) [Example 10, 7-[D(-)-α-(4-ethyl-2,3-dioxopiperazin-1-yl-carbonylamino)-m-chloro-p-acetoacetoxyphenylacetamido]-3-(1,3,4-thiadiazol-2-yl-thiomethyl)-3-cephem-4-carboxylic acid] | 3.13 (≈ 4.08 µM) |  |  |  |  |  |  |  |  |  |  |  |  |  |  |  |  |  |  |  | 
4 | CCN1CCN(C(=O)N[C@@H](C(=O)NC2C(=O)N3C(C(=O)O)=C(CSc4nncs4)CS[C@H]23)c2ccc(OC(C)=O)c(Cl)c2)C(=O)C1=O (single isomer, unassigned) [IV, 7-[D(-)-α-(4-ethyl-2,3-dioxopiperazin-1-yl-carbonylamino)-m-chloro-p-acetoxyphenylacetamido]-3-(1,3,4-thiadiazol-2-yl-thiomethyl)-3-cephem-4-carboxylic acid] |  | 6.25 | 1.56 | 6.25 | 6.25 | 3.13 | 25 | 1.56 | 1.56 | 0.39 (≈ 0.539 µM) | 3.13 | 12.5 | 3.13 | 3.13 | 3.13 | 3.13 | 12.5 | 12.5 | 27 | 34900 | MIC [5, 24]: 6.25 µg/mL; MIC [12, 25]: 0.78 µg/mL; MIC [15, 26]: 25 µg/mL; ED50 in Pseudomonas infection in mice [23]: 1.8 mg/mouse
5 | CCN1CCN(C(=O)N[C@@H](C(=O)NC2C(=O)N3C(C(=O)O)=C(CSc4nncs4)CS[C@H]23)c2ccc(OC(=O)CC(C)=O)cc2)C(=O)C1=O (single isomer, unassigned) [Example 9, 7-[D(-)-α-(4-ethyl-2,3-dioxopiperazin-1-yl-carbonylamino)-p-acetoacetoxyphenylacetamido]-3-(1,3,4-thiadiazol-2-yl-thiomethyl)-3-cephem-4-carboxylic acid] | 6.25 (≈ 8.54 µM) |  |  |  |  |  |  |  |  |  |  |  |  |  |  |  |  |  |  |  | 
6 | CCOC(=O)Oc1ccc([C@@H](NC(=O)N2CCN(CC)C(=O)C2=O)C(=O)NC2C(=O)N3C(C(=O)O)=C(CSc4nnc(C)s4)CS[C@H]23)cc1Cl (single isomer, unassigned) [Example 12, 7-[D(-)-α-(4-ethyl-2,3-dioxopiperazin-1-yl-carbonylamino)-m-chloro-p-ethoxycarbonyloxyphenylacetamido]-3-(5-methyl-1,3,4-thiadiazol-2-yl-thiomethyl)-3-cephem-4-carboxylic acid] | 12.5 (≈ 16.3 µM) |  |  |  |  |  |  |  |  |  |  |  |  |  |  |  |  |  |  |  | 
7 | CCN1CCN(C(=O)N[C@@H](C(=O)NC2C(=O)N3C(C(=O)O)=C(CSc4nncs4)CS[C@H]23)c2ccc(OC(C)=O)cc2)C(=O)C1=O (single isomer, unassigned) [III, 7-[D(-)-α-(4-ethyl-2,3-dioxopiperazin-1-yl-carbonylamino)-p-acetoxyphenylacetamido]-3-(1,3,4-thiadiazol-2-yl-thiomethyl)-3-cephem-4-carboxylic acid] |  | 12.5 | 1.56 | 12.5 | 3.13 | 1.56 | 25 | 0.78 | 0.78 | 0.78 (≈ 1.13 µM) | 6.25 | 12.5 | 6.25 | 1.56 | 1.56 | 6.25 | 6.25 | 6.25 | 48 | 62000 | MIC [5, 24]: 3.13 µg/mL; MIC [12, 25]: 0.78 µg/mL; MIC [15, 26]: 25 µg/mL; ED50 in Pseudomonas infection in mice [23]: 2.6 mg/mouse
8 | CCN1CCN(C(=O)N[C@@H](C(=O)NC2C(=O)N3C(C(=O)O)=C(CSc4nncs4)CS[C@H]23)c2ccc(OC(=O)OCC(C)C)cc2)C(=O)C1=O (single isomer, unassigned) [Example 17, 7-[D(-)-α-(4-ethyl-2,3-dioxopiperazin-1-yl-carbonylamino)-p-iso-butoxycarbonyloxyphenylacetamido]-3-(1,3,4-thiadiazol-2-yl-thiomethyl)-3-cephem-4-carboxylic acid] | 12.5 (≈ 16.7 µM) |  |  |  |  |  |  |  |  |  |  |  |  |  |  |  |  |  |  |  | 
